From ChEMBL document CHEMBL2016540, “Indole-propionic acid derivatives as potent, S1P3-sparing and EAE efficacious sphingosine-1-phosphate 1 (S1P1) receptor agonists” (Bioorg Med Chem Lett, 2012) come the findings set out here.

The target in data set [1] is Sphingosine 1-phosphate receptor 3 (Homo sapiens, UniProt Q99500). The data set is described as follows: Agonist activity at human S1P3 receptor assessed as Ca2+ mobilization by GeneBLAzer assay. It is filed as functional.
Data set [2] addresses Sphingosine 1-phosphate receptor 1 (Homo sapiens, UniProt P21453). The data set is described as follows: Agonist activity at S1P1 receptor by Tango assay. It is filed as functional.
Data set [3] in a line: Oral bioavailability in C57BL/6 mouse blood at 2 mg/kg. Format: ADME, organism-based.
Data set [4] has as its system Mus musculus. The data set is described as follows: Immunosuppressive activity in naive B6 mouse assessed as peripheral lymphocytes at 1 mg/kg, po at 24 hrs relative to control. It is filed as functional.
Data set [5] is described as follows: Ratio of drug level in brain to blood in mouse at 2 mg/kg, ip at 2 hrs. The conditions noted are these: brain and blood. It is filed as ADME, organism-based. Details: dose 2 mg/kg, route intraperitoneal.
A short description of data set [6]: Clearance in C57BL/6 mouse blood at 1 mg/kg, iv and 2 mg/kg, po. It is filed as ADME, organism-based.
Data set [7] has as its system Mus musculus. Nature of the data set: Immunosuppressive activity in naive B6 mouse assessed as peripheral lymphocytes at 1 mg/kg, po at 4 hrs relative to control. It is filed as functional.
A short description of data set [8]: Terminal half life in C57BL/6 mouse blood at 1 mg/kg, iv and 2 mg/kg, po. Format: ADME, organism-based. Particulars: read-out: beta t1/2 (converted).
For data set [9], the species on record is Mus musculus. The data set is described as follows: Immunosuppressive activity in C57BL/6 mouse autoimmune encephalomyelitis model assessed as efficacy relative to fingolimod. Format: functional, organism-based.
Data set [10] in a line: Cmax in C57BL/6 mouse blood at 1 mg/kg, iv and 2 mg/kg, po. It is filed as ADME, organism-based.
Data set [11] is described as follows: Volume of distribution at steady state in C57BL/6 mouse blood at 1 mg/kg, iv and 2 mg/kg, po. Format: ADME, organism-based. The conditions noted are these: read-out: Vdss.
A short description of data set [12]: Ratio of drug level in brain to blood in mouse at 2 mg/kg, ip at 4 hrs. Format: ADME, organism-based. Particulars: brain and blood. Details: dose 2 mg/kg, route intraperitoneal.
The nature of data set [13]: Ratio of drug level in brain to blood in mouse at 2 mg/kg, ip at 1 hr. Format: ADME, organism-based. Details: dose 2 mg/kg, route intraperitoneal. Particulars: brain and blood.

The source made the active and inactive calls. The calls are words filed in the database; no cut-off is given here.

Sphingosine 1-phosphate receptor 3, sequence (Q99500 whole entry): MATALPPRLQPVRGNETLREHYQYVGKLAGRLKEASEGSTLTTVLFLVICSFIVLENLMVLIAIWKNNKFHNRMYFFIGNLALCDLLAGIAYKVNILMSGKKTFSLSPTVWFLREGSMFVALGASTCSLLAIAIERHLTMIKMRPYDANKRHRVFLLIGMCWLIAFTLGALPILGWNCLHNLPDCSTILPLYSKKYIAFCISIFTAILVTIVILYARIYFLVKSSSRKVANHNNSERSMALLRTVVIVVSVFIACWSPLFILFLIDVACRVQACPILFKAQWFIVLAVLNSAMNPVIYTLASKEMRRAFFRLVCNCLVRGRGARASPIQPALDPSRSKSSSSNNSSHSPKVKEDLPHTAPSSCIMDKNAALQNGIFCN
Sphingosine 1-phosphate receptor 1, sequence (P21453 whole entry): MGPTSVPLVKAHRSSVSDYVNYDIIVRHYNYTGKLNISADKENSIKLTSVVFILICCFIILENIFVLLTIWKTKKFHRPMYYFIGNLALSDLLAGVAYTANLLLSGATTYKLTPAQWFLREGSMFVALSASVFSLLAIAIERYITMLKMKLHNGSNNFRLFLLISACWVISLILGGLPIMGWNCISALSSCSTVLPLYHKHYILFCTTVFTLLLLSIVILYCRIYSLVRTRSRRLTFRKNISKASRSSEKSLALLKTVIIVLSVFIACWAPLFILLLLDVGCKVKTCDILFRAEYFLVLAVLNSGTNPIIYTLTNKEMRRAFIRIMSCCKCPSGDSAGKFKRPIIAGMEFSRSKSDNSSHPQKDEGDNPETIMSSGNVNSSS

Regarding `CC1(C)Oc2ccc(-c3nc(-c4cccc5c(CCC(=O)O)c[nH]c45)no3)cc2O1`, the EC50 in data set [1] is > 10000 nM; in [2], 398 nM.

In the case of `COc1cc(-c2nc(-c3cccc4c(CCC(=O)O)c[nH]c34)no2)cnc1OC(C)C`, the EC50 is > 10000 nM in data set [1] and 100 nM in data set [2].

Consider `CC(C)Oc1ccc(-c2nc(-c3cccc4c(CCC(=O)O)cn(C)c34)no2)cc1Cl`, for which the half-maximal effective concentration (EC50) in data set [1] is > 10000 nM; in data set [2], 0.00631 nM.

In the case of `O=C(O)CCc1c[nH]c2c(-c3noc(C4CCOCC4)n3)cccc12`, the EC50 in data set [1] and in [2] was > 10000 nM each time.

As for `CC(C)Oc1ccc(-c2nc(-c3cccc4c(C(=O)O)c[nH]c34)no2)cc1Cl`, the EC50 in data set [1] was > 10000 nM; in [2] it was 5.01 nM.

In the case of `CCCn1cc(CCC(=O)O)c2cccc(-c3noc(-c4ccc(OC(C)C)c(Cl)c4)n3)c21`, the half-maximal effective concentration (EC50) in data set [1] was > 10000 nM; in data set [2], 200 nM.

Take `O=C(O)CCc1c[nH]c2c(-c3noc(-c4ccc(Cl)cc4)n3)cccc12`: the results for the EC50 in data set [1] and in data set [2] were > 10000 nM and 3160 nM, respectively.

As for `COc1ccc(-c2noc(-c3ccc(OC(C)C)c(Cl)c3)n2)c2c1c(CCC(=O)O)cn2C`, the EC50 is > 10000 nM in data set [1] and 6.31 nM in [2].

For the molecule `O=C(O)CCc1c[nH]c2c(-c3noc(C4CCCCC4)n3)cccc12`, the EC50 in data set [1] and in data set [2] was > 10000 nM throughout.

On to `CCn1cc(CCC(=O)O)c2cccc(-c3noc(-c4ccc(OC(C)C)c(Cl)c4)n3)c21`, for which the results for the EC50 in [1] and in data set [2] were > 10000 nM and 0.316 nM, respectively.

For the molecule `CNC(=O)CCc1c[nH]c2c(-c3noc(-c4ccc(OC(C)C)c(Cl)c4)n3)cccc12`, the EC50 in data set [1] was > 10000 nM; in data set [2], 0.0398 nM.

With `CC(C)Oc1ccc(-c2nc(-c3c(F)ccc4c(CCC(=O)O)cn(C)c34)no2)cc1Cl`, the figures for the EC50 in data set [1] and in data set [2] were > 10000 nM and 25.1 nM, respectively.

Turning to `CCOc1ccc(-c2nc(-c3cccc4c(CCC(=O)O)c[nH]c34)no2)cc1OCC`, the EC50 in data set [1] is > 10000 nM; in data set [2], 3.16 nM.

Regarding `CC(C)Oc1ccc(-c2nc(-c3ccc4c(CCC(=O)O)c[nH]c4c3)no2)cc1Cl`, the EC50 was > 10000 nM in data set [1] and 0.251 nM in data set [2].

In the case of `CC(C)Oc1ccc(-c2nc(-c3ccc(F)c4c(CCC(=O)O)cn(C)c34)no2)cc1Cl`, the bioavailability in [3] amounted to 100%. Moreover, the results for the EC50 in data set [1] and in data set [2] were > 10000 nM and < 0.01 nM, respectively. Besides, the Activity was determined as 114% in the data set with Mus musculus [4] and 21% in the data set with Mus musculus [7]. The Kp at 2 h in [5] was determined as 0.48. This molecule showed a clearance in data set [6] of 3.22 mL/min/kg. Also, the half-life in data set [8] is 3.83 h. Besides, the Efficacy entry in the data set listed under Mus musculus [9] is “Active”. The molecule further returned a Cmax in data set [10] of 1700 ng/mL. In addition, the Vd in data set [11] is 0.84 L/kg. Further, the Kp at 4 h in [12] was 0.48. Also, in [13], the Kp at 1 h is 0.35.

As for `CC(C)Oc1ccc(-c2nc(-c3ccc4[nH]c(CCC(=O)O)cc4c3)no2)cc1Cl`, the EC50 in data set [1] is > 10000 nM; in data set [2] it was 0.2 nM.

Regarding `CC(C)Oc1ccc(-c2nc(-c3cccc4c(CCC(N)=O)c[nH]c34)no2)cc1Cl`, the EC50 in data set [1] was > 10000 nM; in [2] it was 0.0316 nM.

Turning to `CC(C)Oc1ccc(-c2nc(-c3cccc4c(CCc5nnn[nH]5)c[nH]c34)no2)cc1Cl`, the figures for the EC50 in data set [1] and in data set [2] were > 10000 nM and 0.0794 nM, respectively.

Regarding `CC(C)Oc1ncc(-c2nc(-c3cccc4c(CCC(=O)O)c[nH]c34)no2)cc1Cl`, the concentration giving a half-maximal response (EC50) in data set [1] was > 10000 nM; in data set [2], 0.398 nM.

On to `CC(C)Oc1ccc(-c2nc(-c3ccc4ccn(CCC(=O)O)c4c3)no2)cc1Cl`, for which the EC50 in [1] is > 10000 nM; in data set [2], 398 nM.

For the molecule `CC(C)Oc1ccc(-c2nc(-c3cccc4c(CCCC(=O)O)c[nH]c34)no2)cc1Cl`, the EC50 is > 10000 nM in data set [1] and 0.398 nM in [2].

With `CC(C)Oc1ccc(-c2nc(-c3cc(F)cc4c(CCC(=O)O)cn(C)c34)no2)cc1Cl`, the EC50 in [1] is > 10000 nM; in data set [2] it was < 0.01 nM.

`CC(C)Oc1ccc(-c2nc(-c3cccc4c(CCC(=O)O)cn(C(C)C)c34)no2)cc1Cl`: the values for the EC50 in data set [1] and in [2] were > 10000 nM and 20 nM, respectively.

Regarding `Cc1cc(-c2nc(-c3cccc4c(CCC(=O)O)c[nH]c34)no2)cnc1OC(C)C`, the EC50 was > 10000 nM in [1] and 1.58 nM in [2].

As to `O=C(O)CCc1c[nH]c2c(-c3noc(-c4ccc5c(c4)OCCO5)n3)cccc12`, the results for the EC50 in data set [1] and in data set [2] were > 10000 nM and > 3160 nM, respectively.

`COc1ccc(-c2nc(-c3cccc4c(CCC(=O)O)c[nH]c34)no2)cc1OC`: the EC50 in data set [1] is > 10000 nM; in data set [2] it was 1260 nM.

Take `CC(C)Oc1ccc(-c2nc(-c3cccc4c(CCCCC(=O)O)c[nH]c34)no2)cc1Cl`: the EC50 in [1] is > 10000 nM; in [2], 0.0501 nM.

As for `CC(C)Oc1ncc(-c2nc(-c3cccc4c(CCC(=O)O)c[nH]c34)no2)cc1C(F)(F)F`, the EC50 in data set [1] is > 10000 nM; in [2] it was 0.251 nM.

For the molecule `CC(C)Oc1ccc(-c2nc(-c3cccc4c(CCC(=O)O)c[nH]c34)no2)cc1Cl`, the EC50 in data set [1] was > 10000 nM; in data set [2], 0.0126 nM.

Regarding `CC(C)Oc1ccc(-c2nc(-c3cccc4c(CC(=O)O)c[nH]c34)no2)cc1Cl`, the EC50 in data set [1] is > 10000 nM; in data set [2] it was 39.8 nM.

Take `CC(C)Oc1ccc(-c2nc(-c3ccc4c(ccn4CCC(=O)O)c3)no2)cc1Cl`: the figures for the EC50 in data set [1] and in data set [2] were > 10000 nM and 2.51 nM, respectively.
